Test [1] has as its system Klebsiella aerogenes. As to the kind of experiment: Minimum inhibitory concentration against Klebsiella aerogenes (Gram-negative) in broth. Type of test: functional.
Test [2] deals with Staphylococcus aureus. In words: Minimum inhibitory concentration against Staphylococcus aureus (Gram-positive) was determined by broth dilution method. It counts as functional. A general note: Broth dilution looks for growth in wells or tubes with falling amounts of substance.
Test [3] has as its system Bacillus sp. In words: Minimum inhibitory concentration against Bacillus sphaericus (Gram-positive) was determined by broth dilution method. Type of test: functional, Lysinibacillus sphaericus. As to conditions: Bacillus sp. (in: firmicutes).
Test [4] deals with Bacillus subtilis. As to the kind of experiment: Minimum inhibitory concentration against Bacillus subtilis (Gram-positive) was determined by broth dilution method. It counts as functional.
Test [5] in a line: Minimum inhibitory concentration against Chromobacterium violaceum (Gram-negative) was determined by broth dilution method. Type of test: functional.
For test [6], the system named is Bacillus sp. In words: Minimum inhibitory concentration against Bacillus sphaericus (Gram-positive) in broth. Type of test: functional, Lysinibacillus sphaericus. As to conditions: Bacillus sp. (in: firmicutes).
The subject of test [7] is Pseudomonas aeruginosa. In words: Minimum inhibitory concentration against Pseudomonas aeruginosa (Gram-negative) by broth dilution method. Type of test: functional.

Converted amounts (≈) assume the structure as drawn.

`c1ccc(CNc2nc(NCc3ccccc3)nc(NCc3ccccc3)n2)cc1`: the MIC in test [1], in test [2], in test [3], in test [4] and in test [5] was 25 µg/mL (≈ 63.1 µM) throughout.
On to `Cc1ccc(CNc2nc(NCc3ccc(C)cc3)nc(NCc3ccc(C)cc3)n2)cc1`, for which, in test [3], the lowest concentration to inhibit growth (MIC) was 50 µg/mL (≈ 114 µM).
For the compound `c1ccc(Cc2nc(Cc3ccccc3)nc(Cc3ccccc3)n2)cc1`, the MIC (usually the smallest concentration in the dilution series that meets the test's criterion for growth inhibition) in test [1] was 6.25 µg/mL (≈ 17.8 µM); in test [2], 12.5 µg/mL (≈ 35.6 µM); in test [3], 6.25 µg/mL (≈ 17.8 µM); in test [4] it was 12.5 µg/mL (≈ 35.6 µM); in test [5] it was 6.25 µg/mL (≈ 17.8 µM).
On to `COc1ccc(CNc2nc(NCc3ccc(OC)cc3)nc(NCc3ccc(OC)cc3)n2)cc1`, for which the MIC is 25 µg/mL (≈ 51.4 µM) in test [1]; 25 µg/mL (≈ 51.4 µM) in test [2]; 12.5 µg/mL (≈ 25.7 µM) in test [3]; 25 µg/mL (≈ 51.4 µM) in test [4]; 25 µg/mL (≈ 51.4 µM) in test [5].
As to `COc1ccc(Cc2nc(Cc3ccc(OC)cc3)nc(Cc3ccc(OC)cc3)n2)cc1`, the MIC in test [1] was determined as 25 µg/mL (≈ 56.6 µM); in test [2], 25 µg/mL (≈ 56.6 µM); in test [3], 12.5 µg/mL (≈ 28.3 µM); in test [4] it was 50 µg/mL (≈ 113 µM); in test [5] it was 25 µg/mL (≈ 56.6 µM).
For the compound `Fc1ccc(COc2nc(OCc3ccc(F)cc3)nc(OCc3ccc(F)cc3)n2)cc1`, the MIC in test [1] stood at 25 µg/mL (≈ 55.1 µM); in test [2] it was 25 µg/mL (≈ 55.1 µM); in test [3], 12.5 µg/mL (≈ 27.6 µM); in test [4] it was 25 µg/mL (≈ 55.1 µM); in test [5], 12.5 µg/mL (≈ 27.6 µM).
Regarding `c1ccc(COc2nc(OCc3ccccc3)nc(OCc3ccccc3)n2)cc1`, the MIC in test [2], in test [3], in test [4] and in test [5] was 25 µg/mL (≈ 62.6 µM) throughout.
For `Clc1ccc(CNc2nc(NCc3ccc(Cl)cc3)nc(NCc3ccc(Cl)cc3)n2)cc1`, the MIC in test [3] and in test [5] was 25 µg/mL (≈ 50 µM) throughout.
`Clc1ccc(COc2nc(OCc3ccc(Cl)cc3)nc(OCc3ccc(Cl)cc3)n2)cc1`: the MIC was found to be 25 µg/mL (≈ 49.7 µM) in test [1]; 12.5 µg/mL (≈ 24.9 µM) in test [2]; 12.5 µg/mL (≈ 24.9 µM) in test [3]; 12.5 µg/mL (≈ 24.9 µM) in test [4]; 25 µg/mL (≈ 49.7 µM) in test [5].
Consider `Fc1ccc(CNc2nc(NCc3ccc(F)cc3)nc(NCc3ccc(F)cc3)n2)cc1`, for which, in test [6], the MIC was determined as 50 µg/mL (≈ 111 µM).
Take `COc1ccc(COc2nc(OCc3ccc(OC)cc3)nc(OCc3ccc(OC)cc3)n2)cc1`: the MIC in test [1] amounted to 25 µg/mL (≈ 51.1 µM); in test [2], 25 µg/mL (≈ 51.1 µM); in test [3] it was 25 µg/mL (≈ 51.1 µM); in test [4], 25 µg/mL (≈ 51.1 µM); in test [5], 6.25 µg/mL (≈ 12.8 µM).
`Clc1ccc(Cc2nc(Cc3ccc(Cl)cc3)nc(Cc3ccc(Cl)cc3)n2)cc1`: the MIC in test [1], in test [2], in test [3], in test [4] and in test [5] was 25 µg/mL (≈ 55 µM) throughout.
For the compound `CC1(C)S[C@@H]2[C@H](NC(=O)Cc3ccccc3)C(=O)N2C1C(=O)O` (single isomer, unassigned) [PENICILLIN G], the MIC amounted to 6.25 µg/mL (≈ 18.7 µM) in test [1]; 1.56 µg/mL (≈ 4.67 µM) in test [2]; 3.12 µg/mL (≈ 9.35 µM) in test [3]; 12.5 µg/mL (≈ 37.4 µM) in test [7]; 1.56 µg/mL (≈ 4.67 µM) in test [4]; 12.5 µg/mL (≈ 37.4 µM) in test [5].
On to `CN[C@@H]1[C@H](O[C@H]2[C@H](O[C@H]3[C@H](O)[C@@H](O)[C@H](N=C(N)N)[C@@H](O)[C@@H]3N=C(N)N)O[C@@H](C)[C@]2(O)C=O)O[C@@H](CO)[C@H](O)[C@H]1O` [STREPTOMYCIN], for which the MIC in test [1] worked out at 1.56 µg/mL (≈ 2.69 µM); in test [2], 6.25 µg/mL (≈ 10.7 µM); in test [3] it was 12.5 µg/mL (≈ 21.5 µM); in test [7] it was 3.12 µg/mL (≈ 5.37 µM); in test [4], 6.25 µg/mL (≈ 10.7 µM); in test [5], 3.12 µg/mL (≈ 5.37 µM).

The values above are taken from ChEMBL document CHEMBL1141068, “Synthesis and antibacterial activity of 2,4,6-tri substituted s-triazines” (2005).
